As usually defined, the Ki is a dissociation constant, usually derived from enzyme kinetics or from competition with a known ligand. High values mean weaker binding, low ones tighter binding. By IC50 is commonly meant the midpoint of a concentration-inhibition curve.

The text below walks through data of ChEMBL document CHEMBL1129854, “Novel small molecule neurotensin antagonists: 3-(1,5-diaryl-1,5-dioxopentan-3-yl)benzoic acids” (Bioorg Med Chem Lett, 1997).

Some results are limits rather than exact numbers.

The nature of test [1]: Inhibition of the binding of [3H]NT to neurotensin (NT) receptor in mouse brain tissue. In kind it is tissue-based.
Test [2] has as its system HT-29. The experiment in a line: In vitro ability to inhibit the calcium mobilization induced by neurotensin (NT) in HT-29 cells. The class given is functional, cell-based. To be noted: Homo sapiens. (A change in cytosolic calcium serves as a functional read-out for many receptors and channels.)

`O=C(O)c1cccc(C(CC(=O)c2ccccc2)CC(=O)c2ccccc2)c1`: the Ki in test [1] was > 10000 nM.
On to `COc1cccc(OC)c1-c1cc(C(=O)NC2(C(=O)O)C3CC4CC(C3)CC2C4)nn1-c1ccnc2cc(Cl)ccc12` (stereo not drawn) [REMINERTANT], for which the IC50 in test [2] was 160 nM. This compound also showed a Ki in test [1] of 3.9 nM.
